The text below walks through data of paper PMC10329608, “Investigation of the structure-activity relationship at the N-terminal part of minigastrin analogs” (EJNMMI Research, 2023).

The term IC50 denotes the concentration that gives 50% inhibition. The term logD denotes lipophilicity at a set pH, counting ionised and neutral species. A higher logD goes with higher lipophilicity.

One data set addresses T1, CCK-2R (Rattus norvegicus, UniProt P30553).
T1 construct: endogenous in cells; host or cells: AR42J cells
T1 sequence (P30553 1-452): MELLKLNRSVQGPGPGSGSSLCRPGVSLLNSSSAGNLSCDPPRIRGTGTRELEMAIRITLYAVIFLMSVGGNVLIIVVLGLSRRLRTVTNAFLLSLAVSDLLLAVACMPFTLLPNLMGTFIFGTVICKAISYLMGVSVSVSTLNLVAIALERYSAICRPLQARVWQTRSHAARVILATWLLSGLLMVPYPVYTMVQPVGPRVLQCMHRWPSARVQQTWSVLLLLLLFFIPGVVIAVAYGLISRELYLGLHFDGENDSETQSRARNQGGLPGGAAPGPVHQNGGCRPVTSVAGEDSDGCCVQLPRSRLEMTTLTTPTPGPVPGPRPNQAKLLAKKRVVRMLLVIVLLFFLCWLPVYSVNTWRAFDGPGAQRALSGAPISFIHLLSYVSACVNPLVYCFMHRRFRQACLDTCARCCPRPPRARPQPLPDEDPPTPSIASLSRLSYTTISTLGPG
As to the kind of experiment: Competitive binding (IC50) on AR42J cells against [177Lu]Lu-DOTA-PP-F11N. The following applies: for IC50 / CCK-2R affinity (in words): AR42J cells; for IC50: 3 h; for fold elevated IC50 value versus N-methylated tetrapeptides: B1 versus B3, B5 and B7 versus B3, B4 and B6; for CCK-2R affinity (in words): tetrapeptides. As for the experimental part:
IC50 values of all compounds were determined according to a previously published procedure. In brief, competitive binding studies were performed via co-incubation of increasing concentrations of the peptide of interest (10^−10 to 10^–4 M, in triplicate) together with the reference compound [^177Lu]Lu-DOTA-PP-F11N (0.3 pmol/well) on AR42J cells (2 × 10^5 cells per 1 mL/well) at 37 °C for 3 h. Table S1. CCK-2R affinity and lipophilicity data of the compounds evaluated. Affinity data were determined on AR42J cells (2.0 x 10^5 cells/well/mL) and [^177Lu]Lu-DOTA-PP-F11N (0.3 pmol/well) as radiolabeled reference (3 h, 37°C, RPMI 1640, 5 mM L-Gln, 5 mL non-essential amino acids (100x), 10% FCS + 5% BSA (v/v)).

The format of data set [1] is physicochemical. Conditions: pH 7.4. As for the experimental part: Lipophilicity (depicted as n-octanol-phosphate-buffered saline solution (PBS, pH = 7.4) distribution coefficient, logD7.4) of ^177Lu-labeled minigastrin analogs was evaluated as previously published.
Where [2] appears, read: 2.0 x 10^5 cells/well/mL, [177Lu]Lu-DOTA-PP-F11N 0.3 pmol/well as reference, 37°C, natLu-labeled DOTA peptides, tetrapeptides unlabeled, read-out: IC50.
The mark [3] stands for this setting: [177Lu]Lu-DOTA-PP-F11N as reference, 37 °C, values in text, read-out: IC50 (CCK-2R affinity).

“Also recorded” adds a separate entry of the source. Like-named read-outs stand apart in the source and are kept apart here. Starred links: 1 amine or outer side, 2 acyl side, 3 side chain; linkers in the order of their positions; H or OH if unused. Non-standard residues stand in square brackets, D forms with d. Residues, ends and D or L forms follow the SMILES beside them. *: point of attachment. DOTA = O=C(O)CN1CCN(CC(=O)O)CCN(CC(=O)*)CCN(CC(=O)O)CC1; d(γGlu) = O=C(O)[C@@H](CCC(=O)[*:2])N[*:1]; 1Nal = N[C@@H](Cc1cccc2ccccc12)C(=O)O; 2Nal = N[C@@H](Cc1ccc2ccccc2c1)C(=O)O; PEG5 = NCCOCCOCCOCCOCCOCCC(=O)O; NMeNle = CCCC[C@H](NC)C(=O)O; PEG4 = NCCOCCOCCOCCOCCC(=O)O; Nle = CCCC[C@H](N)C(=O)O

As for `CCCC[C@H](NC(=O)[C@@H](N)Cc1c[nH]c2ccccc12)C(=O)N[C@@H](CC(=O)O)C(=O)N[C@@H](Cc1cccc2ccccc12)C(N)=O` [B1, H-Trp-Nle-Asp-1-Nal-NH2] (H-W[Nle]D[1Nal]-NH2), the 50% inhibitory concentration (IC50) on CCK-2R (setting [2]) amounted to 297 ± 15 nM. Besides, on CCK-2R, the “fold elevated IC50 value versus N-methylated tetrapeptides” value was found to be 50 fold and the “CCK-2R affinity (in words)” value was “significant loss in CCK-2R affinity; also recorded: low CCK-2R affinity”.

As to `CCCC[C@H](NC(=O)[C@@H](N)Cc1c[nH]c2ccccc12)C(=O)N[C@@H](CC(=O)O)C(=O)N[C@@H](Cc1ccccc1)C(N)=O` [B2, H-Trp-Nle-Asp-Phe-NH2] (H-W[Nle]DF-NH2), the IC50 at CCK-2R (setting [2]) is 466 ± 88 nM. Moreover, the “CCK-2R affinity (in words)” value at CCK-2R is “significant loss in CCK-2R affinity”; on CCK-2R (listed as H-Trp-Nle-Asp-Phe-NH2), “noticeably decreased CCK-2R affinity”.

Turning to `CCCC[C@@H](C(=O)N[C@@H](CC(=O)O)C(=O)N[C@@H](Cc1cccc2ccccc12)C(N)=O)N(C)C(=O)[C@@H](N)Cc1c[nH]c2ccccc12` [B3, H-Trp-(N-Me)Nle-Asp-1-Nal-NH2] (H-W[NMeNle]D[1Nal]-NH2), the “CCK-2R affinity (in words)” value at CCK-2R is recorded as “CCK-2R affinities in the low nanomolar range”. On the same count and under the same terms, to `CCCC[C@@H](C(=O)N[C@@H](CC(=O)O)C(=O)N[C@@H](Cc1ccccc1)C(N)=O)N(C)C(=O)[C@@H](N)Cc1c[nH]c2ccccc12` [B4, H-Trp-(N-Me)Nle-Asp-Phe-NH2] (H-W[NMeNle]DF-NH2) belongs “CCK-2R affinities in the low nanomolar range”. Consider `CCCC[C@@H](C(=O)N[C@@H](CC(=O)O)C(=O)N[C@@H](Cc1ccc2ccccc2c1)C(N)=O)N(C)C(=O)[C@@H](N)Cc1c[nH]c2ccccc12` [B5, H-Trp-(N-Me)Nle-Asp-2-Nal-NH2] (H-W[NMeNle]D[2Nal]-NH2), for which, at CCK-2R, the “fold elevated IC50 value versus N-methylated tetrapeptides” value was 3.5- to 19 fold. For `CCCC[C@@H](C(=O)N[C@@H](CC(=O)O)C(=O)N[C@@H](Cc1ccc(O)cc1)C(N)=O)N(C)C(=O)[C@@H](N)Cc1c[nH]c2ccccc12` [B6, H-Trp-(N-Me)Nle-Asp-Tyr-NH2] (H-W[NMeNle]DY-NH2), on CCK-2R, the “CCK-2R affinity (in words)” value is on record as “CCK-2R affinities in the low nanomolar range”.

In the case of `CCCC[C@@H](C(=O)N[C@@H](CC(=O)O)C(=O)N[C@@H](Cc1c[nH]c2ccccc12)C(N)=O)N(C)C(=O)[C@@H](N)Cc1c[nH]c2ccccc12` [B7, H-Trp-(N-Me)Nle-Asp-Trp-NH2] (H-W[NMeNle]DW-NH2), the “fold elevated IC50 value versus N-methylated tetrapeptides” value on CCK-2R was 3.5- to 19 fold. Turning to `CCCC[C@@H](C(=O)N[C@@H](CC(=O)O)C(=O)N[C@@H](Cc1cccc2ccccc12)C(N)=O)N(C)C(=O)[C@H](Cc1c[nH]c2ccccc12)NC(=O)CNC(=O)CNC(=O)CNC(=O)CNC(=O)CN1CCN(CC(=O)O)CCN(CC(=O)O)CCN(CC(=O)O)CC1` [[^nat/177Lu]Lu-DOTA-CCK-55, metal not drawn] ({DOTA}-GGGGW[NMeNle]D[1Nal]-NH2), in data set [1], the logD is -2.09 ± 0.07 and the logD7.4 entry is on record as “‒2.7 to ‒2.1”. The matching figures for `CCCC[C@@H](C(=O)N[C@@H](CC(=O)O)C(=O)N[C@@H](Cc1cccc2ccccc12)C(N)=O)N(C)C(=O)[C@H](Cc1c[nH]c2ccccc12)NC(=O)CNC(=O)[C@H](Cc1ccc(O)cc1)NC(=O)CNC(=O)CNC(=O)CN1CCN(CC(=O)O)CCN(CC(=O)O)CCN(CC(=O)O)CC1` [[^nat/177Lu]Lu-DOTA-CCK-56, metal not drawn] ({DOTA}-GGYGW[NMeNle]D[1Nal]-NH2): -1.38 ± 0.07 and “− 1.9 to − 1.2”. Turning to `CCCC[C@@H](C(=O)N[C@@H](CC(=O)O)C(=O)N[C@@H](Cc1cccc2ccccc12)C(N)=O)N(C)C(=O)[C@H](Cc1c[nH]c2ccccc12)NC(=O)CNC(=O)CNC(=O)[C@H](C)NC(=O)CNC(=O)CN1CCN(CC(=O)O)CCN(CC(=O)O)CCN(CC(=O)O)CC1` [[^nat/177Lu]Lu-DOTA-CCK-57, metal not drawn] ({DOTA}-GAGGW[NMeNle]D[1Nal]-NH2), the half-inhibitory concentration (IC50) on CCK-2R (setting [2]) amounted to 9.67 ± 1.74 nM. Moreover, in data set [1], the logD is -1.94 ± 0.06 and the logD7.4 result is “− 1.9 to − 1.2”.

As for `CCCC[C@@H](C(=O)N[C@@H](CC(=O)O)C(=O)N[C@@H](Cc1cccc2ccccc12)C(N)=O)N(C)C(=O)[C@H](Cc1c[nH]c2ccccc12)NC(=O)CNC(=O)CNC(=O)CNC(=O)CC[C@@H](NC(=O)CN1CCN(CC(=O)O)CCN(CC(=O)O)CCN(CC(=O)O)CC1)C(=O)O` [[^nat/177Lu]Lu-DOTA-CCK-58, metal not drawn] ({DOTA-d(γGlu)}-GGGW[NMeNle]D[1Nal]-NH2), in data set [1], the logD is -2.66 ± 0.06 and the logD7.4 result is reported as “‒2.7 to ‒2.1”. For `CCCC[C@@H](C(=O)N[C@@H](CC(=O)O)C(=O)N[C@@H](Cc1cccc2ccccc12)C(N)=O)N(C)C(=O)[C@H](Cc1c[nH]c2ccccc12)NC(=O)CNC(=O)[C@H](Cc1ccc(O)cc1)NC(=O)[C@H](C)NC(=O)CNC(=O)CN1CCN(CC(=O)O)CCN(CC(=O)O)CCN(CC(=O)O)CC1` [[^nat/177Lu]Lu-DOTA-CCK-59, metal not drawn] ({DOTA}-GAYGW[NMeNle]D[1Nal]-NH2), in that order: -1.26 ± 0.08 and “− 1.9 to − 1.2”. For `CCCC[C@@H](C(=O)N[C@@H](CC(=O)O)C(=O)N[C@@H](Cc1cccc2ccccc12)C(N)=O)N(C)C(=O)[C@H](Cc1c[nH]c2ccccc12)NC(=O)CNC(=O)[C@H](Cc1ccc(O)cc1)NC(=O)CNC(=O)CC[C@@H](NC(=O)CN1CCN(CC(=O)O)CCN(CC(=O)O)CCN(CC(=O)O)CC1)C(=O)O` [[^nat/177Lu]Lu-DOTA-CCK-60, metal not drawn] ({DOTA-d(γGlu)}-GYGW[NMeNle]D[1Nal]-NH2), in that order: -2.63 ± 0.05 and “‒2.7 to ‒2.1”. For `CCCC[C@@H](C(=O)N[C@@H](CC(=O)O)C(=O)N[C@@H](Cc1cccc2ccccc12)C(N)=O)N(C)C(=O)[C@H](Cc1c[nH]c2ccccc12)NC(=O)CNC(=O)CNC(=O)[C@H](C)NC(=O)CC[C@@H](NC(=O)CN1CCN(CC(=O)O)CCN(CC(=O)O)CCN(CC(=O)O)CC1)C(=O)O` [[^nat/177Lu]Lu-DOTA-CCK-61, metal not drawn] ({DOTA-d(γGlu)}-AGGW[NMeNle]D[1Nal]-NH2), in that order: -2.56 ± 0.09 and “‒2.7 to ‒2.1”. Regarding `CCCC[C@@H](C(=O)N[C@@H](CC(=O)O)C(=O)N[C@@H](Cc1cccc2ccccc12)C(N)=O)N(C)C(=O)[C@H](Cc1c[nH]c2ccccc12)NC(=O)CNC(=O)CN1CCN(CC(=O)O)CCN(CC(=O)O)CCN(CC(=O)O)CC1` [[^nat/177Lu]Lu-DOTA-CCK-62, DOTA-Gly-Trp-(N-Me)Nle-Asp-1-Nal-NH2, metal not drawn] ({DOTA}-GW[NMeNle]D[1Nal]-NH2), in data set [1], the logD was -1.34 ± 0.08 and the logD7.4 entry is given as “− 1.9 to − 1.2”. For `CCCC[C@@H](C(=O)N[C@@H](CC(=O)O)C(=O)N[C@@H](Cc1cccc2ccccc12)C(N)=O)N(C)C(=O)[C@H](Cc1c[nH]c2ccccc12)NC(=O)CCOCCOCCOCCOCCOCCNC(=O)CN1CCN(CC(=O)O)CCN(CC(=O)O)CCN(CC(=O)O)CC1` [[^nat/177Lu]Lu-DOTA-CCK-63, metal not drawn] ({DOTA-PEG5}-W[NMeNle]D[1Nal]-NH2), on CCK-2R (setting [3]), the IC50 stood at 8.8 ± 1.3 nM. The compound further registered a logD in data set [1] of -2.13 ± 0.05. For the compound `CCCC[C@@H](C(=O)N[C@@H](CC(=O)O)C(=O)N[C@@H](Cc1cccc2ccccc12)C(N)=O)N(C)C(=O)[C@H](Cc1c[nH]c2ccccc12)NC(=O)CCOCCOCCOCCOCCNC(=O)CN1CCN(CC(=O)O)CCN(CC(=O)O)CCN(CC(=O)O)CC1` [[^nat/177Lu]Lu-DOTA-CCK-64, metal not drawn] ({DOTA-PEG4}-W[NMeNle]D[1Nal]-NH2), the IC50 on CCK-2R (setting [2]) was 7.64 ± 0.86 nM; at CCK-2R (setting [3]), 7.6 ± 0.9 nM. Further, the logD in data set [1] was -2.21 ± 0.07. Take `CCCC[C@@H](C(=O)N[C@@H](CC(=O)O)C(=O)N[C@@H](Cc1cccc2ccccc12)C(N)=O)N(C)C(=O)[C@H](Cc1c[nH]c2ccccc12)NC(=O)CNC(=O)[C@H](Cc1ccc(O)cc1)NC(=O)[C@H](C)NC(=O)CC[C@@H](NC(=O)CN1CCN(CC(=O)O)CCN(CC(=O)O)CCN(CC(=O)O)CC1)C(=O)O` [[^nat/177Lu]Lu-DOTA-γ-MGS5, DOTA-D-γ-Glu-Ala-Tyr-Gly-Trp-(N-Me)Nle-Asp-1-Nal-NH2, metal not drawn, reference compound] ({DOTA-d(γGlu)}-AYGW[NMeNle]D[1Nal]-NH2): in data set [1], the log distribution coefficient (logD) was -2.24 ± 0.04 and the logD7.4 entry is “− 2.24 ± 0.04”.
